In ChEMBL document CHEMBL4184323, “Structure-Guided Design, Synthesis, and Characterization of Next-Generation Meprin β Inhibitors” (J Med Chem, 2018):

How the values were obtained:
[1] = target: T1, Meprin A subunit beta (Homo sapiens, UniProt Q16820)
T1 sequence (Q16820 whole entry): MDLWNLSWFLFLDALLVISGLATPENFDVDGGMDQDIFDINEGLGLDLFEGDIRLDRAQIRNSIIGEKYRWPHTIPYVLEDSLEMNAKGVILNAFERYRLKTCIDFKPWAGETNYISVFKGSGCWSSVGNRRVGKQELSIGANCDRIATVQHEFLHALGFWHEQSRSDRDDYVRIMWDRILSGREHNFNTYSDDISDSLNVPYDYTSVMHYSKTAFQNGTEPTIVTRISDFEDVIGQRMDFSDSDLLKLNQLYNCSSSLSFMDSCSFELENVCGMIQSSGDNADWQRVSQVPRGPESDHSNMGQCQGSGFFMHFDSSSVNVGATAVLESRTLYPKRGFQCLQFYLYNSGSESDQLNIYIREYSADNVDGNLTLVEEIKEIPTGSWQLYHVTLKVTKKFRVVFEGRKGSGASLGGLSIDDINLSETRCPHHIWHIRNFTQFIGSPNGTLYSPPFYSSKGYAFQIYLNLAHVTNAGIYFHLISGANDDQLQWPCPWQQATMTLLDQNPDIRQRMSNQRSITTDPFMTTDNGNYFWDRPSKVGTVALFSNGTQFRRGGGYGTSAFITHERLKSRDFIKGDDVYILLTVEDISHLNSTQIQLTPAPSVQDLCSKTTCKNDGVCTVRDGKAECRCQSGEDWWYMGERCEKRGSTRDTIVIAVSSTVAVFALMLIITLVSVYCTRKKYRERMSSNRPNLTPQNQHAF
Description: Inhibition of recombinant human meprin beta expressed in yeast using Abz-YVAEAPK(Dnp)G-OH as substrate by fluorescence assay

[2] = target: MMP2 (Homo sapiens, UniProt P08253); assay: Inhibition of human MMP2 assessed as residual activity using Mca-PLGL-(DapDnp)-AR-NH2 as substrate at 200 uM by fluorescence assay relative to control; details: human MMP2 enzyme, probe Mca-PLGL-(DapDnp)-AR-NH2, read-out: Activity
MMP2, sequence (P08253 whole entry): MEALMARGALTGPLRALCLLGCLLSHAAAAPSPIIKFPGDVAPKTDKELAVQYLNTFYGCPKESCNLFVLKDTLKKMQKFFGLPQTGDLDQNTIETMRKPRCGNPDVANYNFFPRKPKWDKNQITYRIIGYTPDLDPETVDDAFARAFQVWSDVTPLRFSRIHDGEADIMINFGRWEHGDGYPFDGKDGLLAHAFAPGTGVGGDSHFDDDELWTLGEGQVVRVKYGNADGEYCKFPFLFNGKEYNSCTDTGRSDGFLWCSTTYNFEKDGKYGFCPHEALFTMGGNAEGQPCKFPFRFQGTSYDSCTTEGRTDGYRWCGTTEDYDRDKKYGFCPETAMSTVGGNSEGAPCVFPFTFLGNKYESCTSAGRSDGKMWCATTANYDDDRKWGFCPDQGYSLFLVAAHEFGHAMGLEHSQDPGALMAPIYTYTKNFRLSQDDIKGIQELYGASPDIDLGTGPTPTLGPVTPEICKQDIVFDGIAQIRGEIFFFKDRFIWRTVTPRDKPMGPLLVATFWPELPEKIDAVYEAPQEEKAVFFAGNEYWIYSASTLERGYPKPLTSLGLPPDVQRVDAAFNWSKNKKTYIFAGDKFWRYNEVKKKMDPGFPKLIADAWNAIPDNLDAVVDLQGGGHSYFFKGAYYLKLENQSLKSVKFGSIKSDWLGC

[3] = target: MMP9 (Homo sapiens, UniProt P14780); assay: Inhibition of human MMP9 assessed as residual activity using Mca-PLGL-(DapDnp)-AR-NH2 as substrate at 200 uM by fluorescence assay relative to control; details: human MMP9 enzyme, probe Mca-PLGL-(DapDnp)-AR-NH2, read-out: Activity
MMP9, sequence (P14780 whole entry): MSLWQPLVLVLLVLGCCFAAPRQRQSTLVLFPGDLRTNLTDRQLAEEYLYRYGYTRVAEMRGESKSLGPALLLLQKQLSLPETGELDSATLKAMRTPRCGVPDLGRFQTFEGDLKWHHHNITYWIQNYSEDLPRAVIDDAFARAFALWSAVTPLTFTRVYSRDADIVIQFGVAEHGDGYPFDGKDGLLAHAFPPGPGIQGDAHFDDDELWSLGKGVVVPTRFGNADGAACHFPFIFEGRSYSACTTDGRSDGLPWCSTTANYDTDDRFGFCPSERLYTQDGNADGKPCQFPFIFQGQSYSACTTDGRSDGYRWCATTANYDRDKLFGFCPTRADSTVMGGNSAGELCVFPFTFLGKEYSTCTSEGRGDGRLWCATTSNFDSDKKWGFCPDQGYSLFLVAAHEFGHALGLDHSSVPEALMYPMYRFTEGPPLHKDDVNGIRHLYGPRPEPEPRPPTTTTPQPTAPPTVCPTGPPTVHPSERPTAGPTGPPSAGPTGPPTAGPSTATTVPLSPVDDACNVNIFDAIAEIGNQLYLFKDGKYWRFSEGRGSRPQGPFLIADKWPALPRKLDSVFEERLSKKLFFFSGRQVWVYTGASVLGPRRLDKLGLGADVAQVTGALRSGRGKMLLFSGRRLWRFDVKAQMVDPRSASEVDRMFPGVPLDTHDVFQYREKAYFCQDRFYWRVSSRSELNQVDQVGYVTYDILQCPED

[4] = target: MMP13 (Homo sapiens, UniProt P45452); assay: Inhibition of human MMP13 assessed as residual activity using Mca-PLGL-(DapDnp)-AR-NH2 as substrate at 200 uM by fluorescence assay relative to control; details: human MMP13 enzyme, probe Mca-PLGL-(DapDnp)-AR-NH2, read-out: Activity
[5] = target: T2, ADAM10 (Homo sapiens, UniProt O14672); assay: Inhibition of human ADAM10 assessed as residual activity using Abz-LANAVRSSSR-(DapDnp)-AR-NH2 as substrate at 200 uM by fluorescence assay relative to control; details: human ADAM10 enzyme, probe Abz-LANAVRSSSR-(DapDnp)-AR-NH2, read-out: Activity
T2 sequence (O14672 whole entry): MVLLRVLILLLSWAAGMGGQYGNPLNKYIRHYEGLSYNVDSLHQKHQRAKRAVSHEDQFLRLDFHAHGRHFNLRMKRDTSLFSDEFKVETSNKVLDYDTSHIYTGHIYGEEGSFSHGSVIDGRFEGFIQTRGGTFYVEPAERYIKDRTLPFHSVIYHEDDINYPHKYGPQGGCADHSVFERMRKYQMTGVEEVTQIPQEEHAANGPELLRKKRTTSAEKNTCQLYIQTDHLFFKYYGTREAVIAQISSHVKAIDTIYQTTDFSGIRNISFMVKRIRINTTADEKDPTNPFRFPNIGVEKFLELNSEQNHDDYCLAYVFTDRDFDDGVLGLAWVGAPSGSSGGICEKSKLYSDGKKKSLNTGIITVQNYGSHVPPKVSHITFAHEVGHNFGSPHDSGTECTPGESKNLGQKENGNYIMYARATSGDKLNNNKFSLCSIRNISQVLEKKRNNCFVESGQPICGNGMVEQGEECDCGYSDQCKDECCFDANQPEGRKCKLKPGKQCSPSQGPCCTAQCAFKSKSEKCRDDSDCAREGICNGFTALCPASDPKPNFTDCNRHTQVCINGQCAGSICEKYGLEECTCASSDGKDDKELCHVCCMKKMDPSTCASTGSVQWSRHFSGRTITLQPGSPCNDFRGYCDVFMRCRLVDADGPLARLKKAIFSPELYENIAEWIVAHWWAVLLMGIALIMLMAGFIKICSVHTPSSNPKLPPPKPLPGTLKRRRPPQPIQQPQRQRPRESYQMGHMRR

[6] = target: ADAM17 (Homo sapiens, UniProt P78536); assay: Inhibition of human ADAM17 assessed as residual activity using Abz-LANAVRSSSR-(DapDnp)-AR-NH2 as substrate at 200 uM by fluorescence assay relative to control; details: human ADAM17 enzyme, probe Abz-LANAVRSSSR-(DapDnp)-AR-NH2, read-out: Activity
ADAM17, sequence (P78536 whole entry): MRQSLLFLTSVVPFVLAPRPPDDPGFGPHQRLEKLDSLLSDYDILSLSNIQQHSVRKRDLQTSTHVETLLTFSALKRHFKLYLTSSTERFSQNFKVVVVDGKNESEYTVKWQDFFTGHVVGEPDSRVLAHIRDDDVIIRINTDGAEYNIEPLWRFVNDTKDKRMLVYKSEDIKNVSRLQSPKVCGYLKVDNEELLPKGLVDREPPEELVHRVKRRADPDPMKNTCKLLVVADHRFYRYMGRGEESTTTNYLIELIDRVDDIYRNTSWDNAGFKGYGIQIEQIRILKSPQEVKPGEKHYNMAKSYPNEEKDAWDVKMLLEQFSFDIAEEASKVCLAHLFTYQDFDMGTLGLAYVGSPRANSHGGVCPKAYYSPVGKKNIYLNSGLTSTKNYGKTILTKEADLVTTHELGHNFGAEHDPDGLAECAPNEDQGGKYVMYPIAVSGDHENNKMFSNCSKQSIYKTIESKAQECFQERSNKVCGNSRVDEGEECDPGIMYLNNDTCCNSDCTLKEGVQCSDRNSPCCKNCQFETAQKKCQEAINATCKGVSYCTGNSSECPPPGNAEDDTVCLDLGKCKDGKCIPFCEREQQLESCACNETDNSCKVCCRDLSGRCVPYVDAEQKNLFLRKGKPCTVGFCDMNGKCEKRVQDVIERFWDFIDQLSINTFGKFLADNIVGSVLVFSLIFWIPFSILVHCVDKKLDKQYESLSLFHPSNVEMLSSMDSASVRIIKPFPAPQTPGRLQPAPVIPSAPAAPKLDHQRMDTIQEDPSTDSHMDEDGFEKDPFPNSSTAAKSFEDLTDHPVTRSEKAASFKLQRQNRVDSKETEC

[7] = target: CYP3A4 (Homo sapiens, UniProt P08684); assay: Inhibition of recombinant human CYP3A4 expressed in baculosomes assessed as residual activity at 25 uM using BOMCC substrate by fluorescence assay relative to control; type: ADME; details: probe BOMCC, read-out: Activity
CYP3A4, sequence (P08684 whole entry): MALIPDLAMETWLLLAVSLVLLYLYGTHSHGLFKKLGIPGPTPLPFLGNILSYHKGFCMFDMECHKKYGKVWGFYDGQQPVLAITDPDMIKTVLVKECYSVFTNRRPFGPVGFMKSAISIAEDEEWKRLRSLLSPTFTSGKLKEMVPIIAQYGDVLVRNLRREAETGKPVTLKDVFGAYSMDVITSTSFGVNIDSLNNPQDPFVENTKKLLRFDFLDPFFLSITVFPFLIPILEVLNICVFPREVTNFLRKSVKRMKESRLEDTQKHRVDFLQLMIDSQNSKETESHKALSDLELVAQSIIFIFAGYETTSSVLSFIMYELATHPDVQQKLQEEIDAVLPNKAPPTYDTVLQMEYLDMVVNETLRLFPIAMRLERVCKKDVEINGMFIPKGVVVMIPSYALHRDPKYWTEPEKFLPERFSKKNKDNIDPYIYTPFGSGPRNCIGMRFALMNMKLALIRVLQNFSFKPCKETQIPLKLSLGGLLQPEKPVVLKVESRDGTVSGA

[8] = target: CYP2C9 (Homo sapiens, UniProt P11712); assay: Inhibition of recombinant human CYP2C9 expressed in baculosomes assessed as residual activity at 25 uM using BOMCC substrate by fluorescence assay relative to control; type: ADME; details: probe BOMCC, read-out: Activity
CYP2C9, sequence (P11712 whole entry): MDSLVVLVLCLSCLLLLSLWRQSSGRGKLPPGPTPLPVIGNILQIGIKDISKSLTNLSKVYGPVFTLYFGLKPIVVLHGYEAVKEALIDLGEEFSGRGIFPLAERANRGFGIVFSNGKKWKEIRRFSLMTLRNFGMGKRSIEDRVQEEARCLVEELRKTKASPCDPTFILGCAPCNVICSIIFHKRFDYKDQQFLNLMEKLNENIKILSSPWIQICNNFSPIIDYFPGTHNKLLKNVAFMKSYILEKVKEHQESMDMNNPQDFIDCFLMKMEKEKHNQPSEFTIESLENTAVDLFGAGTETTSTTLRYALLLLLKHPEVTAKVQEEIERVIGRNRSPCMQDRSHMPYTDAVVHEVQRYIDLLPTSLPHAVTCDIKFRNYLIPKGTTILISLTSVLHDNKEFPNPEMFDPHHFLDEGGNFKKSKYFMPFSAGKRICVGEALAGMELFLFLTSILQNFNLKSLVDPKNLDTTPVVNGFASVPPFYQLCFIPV

[9] = tested on: SH-SY5Y; assay: Cytotoxicity in human SH-SY5Y cells assessed as cell viability at 30 uM after 24 hrs by CytoTox-ONE-based assay relative to control; type: functional; details: read-out: Activity
[10] = tested on: HepG2; assay: Cytotoxicity in human HepG2 cells assessed as cell viability at 30 uM after 24 hrs by CytoTox-ONE-based assay relative to control; type: functional; details: HepG2, 24 h, read-out: Activity
[11] = tested on: SH-SY5Y; assay: Cytotoxicity in human SH-SY5Y cells assessed as cell viability at 100 uM after 24 hrs by CytoTox-ONE-based assay relative to control; type: functional; details: read-out: Activity
[12] = tested on: HepG2; assay: Cytotoxicity in human HepG2 cells assessed as cell viability at 100 uM after 24 hrs by CytoTox-ONE-based assay relative to control; type: functional; details: HepG2, 24 h, read-out: Activity
[13] = species: Homo sapiens; assay: Selectivity ratio of IC50 for recombinant human meprin alpha expressed in insect cells to IC50 for recombinant human meprin beta expressed in yeast
[14] = target: T3, BMP1 (Homo sapiens, UniProt P13497); assay: Inhibition of human BMP1 expressed in Escherichia coli assessed as residual activity using Abz-YVADAPK(Dnp)G-OH as substrate at 200 uM by fluorescence assay relative to control; details: probe Abz-YVADAPK(Dnp)G-OH, read-out: Activity
T3 sequence (P13497 whole entry): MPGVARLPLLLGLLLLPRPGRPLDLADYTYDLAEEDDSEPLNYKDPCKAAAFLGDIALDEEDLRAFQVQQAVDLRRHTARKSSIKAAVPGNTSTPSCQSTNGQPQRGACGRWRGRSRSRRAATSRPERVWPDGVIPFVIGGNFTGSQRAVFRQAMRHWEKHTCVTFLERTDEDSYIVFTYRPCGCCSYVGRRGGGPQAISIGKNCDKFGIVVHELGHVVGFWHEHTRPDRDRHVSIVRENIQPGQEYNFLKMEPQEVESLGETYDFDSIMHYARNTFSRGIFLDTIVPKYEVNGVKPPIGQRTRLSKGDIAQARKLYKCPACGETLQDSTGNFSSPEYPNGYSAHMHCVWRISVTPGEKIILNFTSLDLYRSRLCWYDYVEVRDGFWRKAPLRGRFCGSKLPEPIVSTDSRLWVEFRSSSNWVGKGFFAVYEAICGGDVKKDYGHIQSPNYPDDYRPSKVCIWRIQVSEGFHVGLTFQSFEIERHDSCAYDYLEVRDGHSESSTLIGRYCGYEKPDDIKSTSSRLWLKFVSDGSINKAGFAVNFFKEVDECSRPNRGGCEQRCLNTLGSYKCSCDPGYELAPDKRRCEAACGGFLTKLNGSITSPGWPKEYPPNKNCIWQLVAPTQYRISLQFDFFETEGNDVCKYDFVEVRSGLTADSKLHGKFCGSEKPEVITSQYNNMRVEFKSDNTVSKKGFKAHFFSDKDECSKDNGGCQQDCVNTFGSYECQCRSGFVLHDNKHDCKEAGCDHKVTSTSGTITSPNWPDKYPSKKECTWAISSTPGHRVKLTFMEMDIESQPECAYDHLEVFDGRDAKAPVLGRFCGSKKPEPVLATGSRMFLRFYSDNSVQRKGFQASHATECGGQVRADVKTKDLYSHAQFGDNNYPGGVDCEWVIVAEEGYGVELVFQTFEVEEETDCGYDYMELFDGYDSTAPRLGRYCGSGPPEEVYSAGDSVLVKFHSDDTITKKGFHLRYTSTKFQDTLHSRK

[15] = Drug absorption in Sprague-Dawley rat at 10 mg/kg, po by LC-MS analysis; type: ADME, organism-based; details: in vivo, read-out: Fabs
[16] = Cmax in Sprague-Dawley rat at 10 mg/kg, po by LC-MS analysis; type: ADME, organism-based; set-up: dose 10 mg/kg, route oral; details: in vivo
[17] = Tmax in Sprague-Dawley rat at 10 mg/kg, po by LC-MS analysis; type: ADME, organism-based; details: in vivo
[18] = tested on: Rattus norvegicus; assay: Volume of distribution in Sprague-Dawley rat at 10 mg/kg, po by LC-MS analysis; type: ADME, organism-based; details: in vivo
[19] = Drug absorption in Sprague-Dawley rat at 10 mg/kg, ip by LC-MS analysis; type: ADME, organism-based; details: in vivo, read-out: Fabs
[20] = Cmax in Sprague-Dawley rat at 10 mg/kg, ip by LC-MS analysis; type: ADME, organism-based; set-up: dose 10 mg/kg, route intraperitoneal; details: in vivo
[21] = Tmax in Sprague-Dawley rat at 10 mg/kg, ip by LC-MS analysis; type: ADME, organism-based; details: in vivo
[22] = Half life in Sprague-Dawley rat at 6 mg/kg, iv by LC-MS analysis; type: ADME, organism-based; details: in vivo
[23] = Clearance in Sprague-Dawley rat at 6 mg/kg, iv by LC-MS analysis; type: ADME, organism-based; details: in vivo
[24] = Volume of distribution at steady state in Sprague-Dawley rat at 6 mg/kg, iv by LC-MS analysis; type: ADME, organism-based; details: in vivo, read-out: Vdss

| IC50 [1] | Structure (SMILES) | activity at 200 µM [2] | activity at 200 µM [3] | activity at 200 µM [4] | activity at 200 µM [5] | activity at 200 µM [6] | activity at 25 µM [7] | activity at 25 µM [8] | further results |
| --- | --- | --- | --- | --- | --- | --- | --- | --- | --- |
| 524 nM | O=C(CN(Cc1ccc(C(=O)O)cc1)Cc1ccc(C(=O)O)cc1)NO |  |  |  |  |  |  |  |  |
| 386 nM | Cc1ccc(CN(CC(=O)NO)Cc2cccc(C(=O)O)c2)cc1 |  |  |  |  |  |  |  |  |
| 1280 nM | O=C(CN(Cc1ccc(-c2ccccc2)cc1)Cc1cccc(C(=O)O)c1)NO |  |  |  |  |  |  |  |  |
| 375 nM | COc1ccc(CN(CC(=O)NO)Cc2cccc(C(=O)O)c2)cc1F |  |  |  |  |  |  |  |  |
| 2250 nM | CCCOc1cccc(CN(CC(=O)NO)Cc2cccc(C(=O)O)c2)c1 |  |  |  |  |  |  |  |  |

Further lines, the compound ahead of its results:

| Structure (SMILES) | IC50 [1] | activity at 200 µM [2] | activity at 200 µM [3] | activity at 200 µM [4] | activity at 200 µM [5] | activity at 200 µM [6] | activity at 25 µM [7] | activity at 25 µM [8] | further results |
| --- | --- | --- | --- | --- | --- | --- | --- | --- | --- |
| COc1cc(F)c(CN(CC(=O)NO)Cc2cccc(C(=O)O)c2)c(F)c1 | 347 nM |  |  |  |  |  |  |  |  |
| O=C(CN(Cc1ccc(Cl)cc1)Cc1cccc(C(=O)O)c1)NO |  | 69% | 88% | 78% | 95% | 57% | 79% | 77% | viability at 30 µM [9]: 97%; viability at 30 µM [10]: 104% |
| COc1c(Cl)ccc(CN(CC(=O)NO)Cc2ccc(Cl)c(OC)c2F)c1F | 12800 nM |  |  |  |  |  |  |  |  |
| COc1ccc(CN(CC(=O)NO)Cc2cccc(C(=O)O)c2)cc1 | 77 nM | 68% | 85% | 94% | 87% | 60% | 80% | 102% | viability at 100 µM [11]: 87%; viability at 100 µM [12]: 100%; Ratio IC50 [13]: 40 |
| COc1ccc(S(=O)(=O)N(CC(=O)NO)Cc2cccc(C(=O)O)c2)cc1 |  | < 1% | 2% | < 1% | < 1% | < 1% |  |  |  |
| O=C(CN(Cc1ccc(Cl)c(O)c1F)Cc1ccc(Cl)c(O)c1F)NO |  | 41% | 81% | 93% | 97% | 82% | 76% | 68% | activity at 200 µM [14]: 50%; Fa [15]: 9%; Cmax [16]: 810 ng/mL; Tmax [17]: 15 min; Vd [18]: 0.058 L; Fa [19]: 84%; Cmax [20]: 10900 ng/mL; Tmax [21]: 10.2 min; half-life [22]: 114 min; clearance [23]: 21 mL/min/kg; Vd [24]: 0.33 L/kg; viability at 30 µM [9]: 93%; viability at 30 µM [10]: 101% |
| O=C(CN(Cc1ccc(F)c(O)c1F)Cc1ccc(F)c(O)c1F)NO |  | 67% | 94% | 102% | 99% | 92% | 87% | 101% | activity at 200 µM [14]: 34%; Fa [15]: 5%; Cmax [16]: 1080 ng/mL; Tmax [17]: 7.8 min; Vd [18]: 0.045 L; half-life [22]: 66 min; clearance [23]: 21.8 mL/min/kg; Vd [24]: 0.41 L/kg; viability at 30 µM [9]: 92%; viability at 30 µM [10]: 99% |
